The source of these data is ChEMBL document CHEMBL2169829, “Water mediated ligand functional group cooperativity: the contribution of a methyl group to binding affinity is enhanced by a COO(-) group through changes in the structure and thermodynamics of the hydration waters of ligand-thermolysin complexes” (J Med Chem, 2012).

Molecules are shown by their SMILES.

This assay addresses T1, Thermolysin (Bacillus thermoproteolyticus, UniProt P00800).
T1 sequence (P00800 whole entry): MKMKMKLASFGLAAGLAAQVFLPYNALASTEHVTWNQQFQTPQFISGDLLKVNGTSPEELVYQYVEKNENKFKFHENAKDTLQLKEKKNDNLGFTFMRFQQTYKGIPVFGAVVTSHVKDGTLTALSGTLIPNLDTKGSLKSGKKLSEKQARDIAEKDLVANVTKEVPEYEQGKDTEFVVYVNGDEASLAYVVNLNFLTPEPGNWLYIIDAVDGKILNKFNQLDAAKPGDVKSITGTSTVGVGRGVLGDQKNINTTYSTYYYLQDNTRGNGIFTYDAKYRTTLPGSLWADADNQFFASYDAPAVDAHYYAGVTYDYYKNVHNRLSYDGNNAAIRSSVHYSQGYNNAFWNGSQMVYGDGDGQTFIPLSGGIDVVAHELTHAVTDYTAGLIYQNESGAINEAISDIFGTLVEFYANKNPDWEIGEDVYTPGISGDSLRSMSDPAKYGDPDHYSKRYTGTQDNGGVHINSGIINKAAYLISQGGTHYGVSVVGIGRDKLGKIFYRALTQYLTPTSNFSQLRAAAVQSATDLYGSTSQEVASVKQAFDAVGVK
The experiment in a line: Binding affinity to Bacillus thermoproteolyticus thermolysin by UV-VIS spectrophotometric analysis in presence of 2-furanacryloyl-Gly-Leu-NH2.
Turning to `CC(C)C[C@H](NP(=O)(O)CNC(=O)OCc1ccccc1)C(=O)NCC(=O)O`, the inhibition constant (Ki) (in general, the equilibrium dissociation constant of an inhibitor or competing ligand from its target) was found to be 472 nM.

In the case of `CC(C)C[C@H](NP(=O)(O)CNC(=O)OCc1ccccc1)C(=O)N[C@@H](C)C(=O)O`, the Ki stood at 19.1 nM.

For the compound `CNC(=O)[C@H](CC(C)C)NP(=O)(O)CNC(=O)OCc1ccccc1`, the inhibition constant Ki was determined as 902 nM.

As for `CCNC(=O)[C@H](CC(C)C)NP(=O)(O)CNC(=O)OCc1ccccc1`, the Ki turned out to be 289 nM.
